Measured values reported in patent US8106055B2, “Substituted amide compounds” (Gruenenthal GmbH, priority 2007, dated 2012).
Where two headings read alike, the source gives them in different places.

Assays:
[1] = biological target: T1, bradykinin 1 receptor (B1R) of the rat (Rattus norvegicus, UniProt P97583); assay: Functional investigation on the rat bradykinin 1 receptor (B1R), Ca2+ FLIPR assay in CHO K1 rB1R cells; assay type: cell-based; conditions: test substance 10 μM; for inhibition at 10 µM: CHO-K1, B1R antagonism rat, read-out: B1R Ant. r [10 μM] % Inhibition; for B1R Ant. r [10 μM] % Inhibition: B1R antagonism rat
T1 construct: expressed in transfected cells; host or cells: CHO K1 cells
T1 sequence (P97583 1-337): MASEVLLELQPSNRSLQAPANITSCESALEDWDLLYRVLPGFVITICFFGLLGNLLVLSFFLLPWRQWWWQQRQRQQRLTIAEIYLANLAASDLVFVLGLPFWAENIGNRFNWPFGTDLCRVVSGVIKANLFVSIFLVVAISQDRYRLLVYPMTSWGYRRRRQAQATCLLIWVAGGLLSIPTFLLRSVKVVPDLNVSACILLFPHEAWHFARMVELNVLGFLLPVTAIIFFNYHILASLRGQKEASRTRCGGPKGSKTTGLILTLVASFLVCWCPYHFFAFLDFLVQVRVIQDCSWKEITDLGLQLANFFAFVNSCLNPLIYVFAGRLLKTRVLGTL
How it was run: (§1)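 Cells were dye-loaded with Fluo-4 plus probenecid, then test substances added and Ca2+ influx compared with agonist control for % activation. After 10-20 min, EC80 agonist (Lys-Des-Arg9-bradykinin human; Des-Arg9-bradykinin rat) was applied; suppression gave % inhibition and IC50 values.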

human μ opiate receptor = biological target: T2, human μ opiate receptor (Homo sapiens, UniProt P35372); assay: Affinity for the human μ opiate receptor ([3H]-naloxone displacement, CHO-K1 receptor membrane preparation, SPA); assay type: binding; conditions: test concentration 1 μM; for inhibition at 1 µM: 1.5 h
T2 construct: purchased PerkinElmer Life Sciences, Zaventem, Belgium RB-HOM; host or cells: CHO-K1 cells (membrane preparation)
How it was run: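 Scintillation proximity binding on human μ receptor membranes from CHO-K1 cells used 1 nmol/l [3H]-naloxone over 90 min at room temperature in 50 mmol/l Tris-HCl, 0.06% BSA. Percent inhibition was recorded at 1 μM.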

[2] = biological target: T3, human bradykinin 1 receptor (B1R) (Homo sapiens, UniProt P46663); assay: Functional investigation on the human bradykinin 1 receptor (B1R), Ca2+ FLIPR assay in CHO K1 hB1R cells; assay type: cell-based; conditions: test substance 10 μM; for inhibition at 10 µM: CHO-K1, B1R antagonism human, read-out: B1R Ant. h [10 μM] % Inhibition; for B1R Ant. h [10 μM] % Inhibition: B1R antagonism human
T3 construct: expressed in transfected cells; host or cells: CHO K1 cells
T3 sequence (P46663 1-353): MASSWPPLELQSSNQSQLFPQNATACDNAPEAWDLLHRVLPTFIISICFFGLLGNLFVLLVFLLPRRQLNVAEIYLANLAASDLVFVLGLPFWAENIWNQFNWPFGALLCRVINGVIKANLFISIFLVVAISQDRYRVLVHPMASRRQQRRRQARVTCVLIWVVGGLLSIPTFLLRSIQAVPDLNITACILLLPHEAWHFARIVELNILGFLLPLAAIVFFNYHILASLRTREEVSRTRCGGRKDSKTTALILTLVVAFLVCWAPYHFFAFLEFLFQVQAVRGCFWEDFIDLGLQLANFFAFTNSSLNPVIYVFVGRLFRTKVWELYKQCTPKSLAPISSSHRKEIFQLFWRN
How it was run: as §1

[3] = Table 3, to be read in the same way as Table 1, read-out: μ
[4] = % inhibition compared with the maximum achievable inhibition

T2 sequence (P35372 whole entry): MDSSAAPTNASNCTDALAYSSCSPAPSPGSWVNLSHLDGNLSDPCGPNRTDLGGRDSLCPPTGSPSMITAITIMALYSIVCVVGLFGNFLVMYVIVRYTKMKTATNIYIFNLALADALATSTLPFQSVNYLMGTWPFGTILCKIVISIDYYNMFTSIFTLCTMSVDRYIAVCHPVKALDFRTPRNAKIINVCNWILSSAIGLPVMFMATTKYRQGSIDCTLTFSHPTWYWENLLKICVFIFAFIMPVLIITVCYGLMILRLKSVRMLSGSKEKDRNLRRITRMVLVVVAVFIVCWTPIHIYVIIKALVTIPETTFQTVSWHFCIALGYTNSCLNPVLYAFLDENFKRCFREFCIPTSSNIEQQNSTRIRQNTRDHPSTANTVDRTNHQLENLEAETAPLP

SMILES | inhibition at 10 µM ([1]; Ca2+ FLIPR, CHO K1 rB1R cells) | inhibition at 1 µM (human μ opiate receptor; [3]) | inhibition at 10 µM ([2]; Ca2+ FLIPR, CHO K1 hB1R cells) | also measured
COc1cc(C)c(S(=O)(=O)N2CCCC2COCC(=O)NC2CCC(C(c3ccccc3)N3CCN(C)CC3)CC2)c(C)c1 (stereo not drawn) [Example 695, 2-((1-(4-methoxy-2,6-dimethylphenylsulfonyl)pyrrolidin-2-yl)methoxy)-N-(4-((4-methylpiperazin-1-yl)(phenyl)methyl)cyclohexyl)acetamide] | 103% | 27% | 103% | 
O=C(COC1CCCN(S(=O)(=O)c2c(Cl)cc(Cl)cc2Cl)C1)NCC1CCC(C(c2ccccc2)N2CCOCC2)CC1 (stereo not drawn) [Example 707, N-((4-(morpholino(phenyl)methyl)cyclohexyl)methyl)-2-(1-(2,4,6-trichlorophenylsulfonyl)piperidin-3-yloxy)acetamide] | 25% | 28% | 2% | 
CN1CCN(C(CCc2ccccc2)C2CCN(C(=O)COCC3CCc4ccccc4N3S(=O)(=O)c3ccc(Cl)c(Cl)c3)CC2)CC1 (stereo not drawn) [Example 811, 2-((1-(3,4-dichlorophenylsulfonyl)-1,2,3,4-tetrahydroquinolin-2-yl)methoxy)-1-(4-(1-(4-methylpiperazin-1-yl)-3-phenylpropyl)piperidin-1-yl)ethanone] |  | 20% |  | inhibition at 10 µM [1, 4]: 96%; inhibition at 10 µM [2, 4]: 104%
COc1cc(C)c(S(=O)(=O)N2CCCCC2COCC(=O)NCC2CCC(C(c3ccccc3)N3CCCC3)CC2)c(C)c1 (stereo not drawn) [Example 657, 2-((1-(4-methoxy-2,6-dimethylphenylsulfonyl)piperidin-2-yl)methoxy)-N-((4-(phenyl(pyrrolidin-1-yl)methyl)cyclohexyl)methyl)acetamide] | 105% | 84% | 104% | 
O=C(COCC1CCCCN1S(=O)(=O)c1c(Cl)cc(Cl)cc1Cl)NCC1CCC(C(CCc2ccccc2)N2CCCC2)CC1 (stereo not drawn) [Example 755, N-((4-(3-phenyl-1-(pyrrolidin-1-yl)propyl)cyclohexyl)methyl)-2-((1-(2,4,6-trichlorophenylsulfonyl)piperidin-2-yl)methoxy)acetamide] | 102% | 62% | 103% | 
CN(C)C(c1ccccc1)C1CCC(CNC(=O)COC2CCCN(S(=O)(=O)c3c(Cl)cc(Cl)cc3Cl)C2)CC1 (stereo not drawn) [Example 621, N-[4-(dimethylaminophenylmethyl)-cyclohexylmethyl]-2-[1-(2,4,6-trichlorobenzenesulfonyl)-piperidin-3-yloxy]-acetamide] | 0% |  | 88% | inhibition at 1 µM (human μ opiate receptor; Table 2, read-out: μ receptor): 90%
COc1cc(C)c(S(=O)(=O)N2CCCCC2COCC(=O)NCC2CCC(C(c3ccccc3)N3CCOCC3)CC2)c(C)c1 (stereo not drawn) [Example 711, 2-((1-(4-methoxy-2,6-dimethylphenylsulfonyl)piperidin-2-yl)methoxy)-N-((4-(morpholino(phenyl)methyl)cyclohexyl)methyl)acetamide] | 103% | 33% | 86% | 
COc1cc(C)c(S(=O)(=O)N(C)CCOCC(=O)NC2CCC(C(c3ccccc3)N3CCCC3)CC2)c(C)c1 (stereo not drawn) [Example 628, 2-(2-(4-methoxy-N,2,6-trimethylphenylsulfonamido)ethoxy)-N-(4-(phenyl(pyrrolidin-1-yl)methyl)cyclohexyl)acetamide] | 89% | 36% | 105% | 
COc1cc(C)c(S(=O)(=O)N2CCCC(OCC(=O)NC3CCC(C(c4ccccc4)N4CCN(C)CC4)CC3)C2)c(C)c1 (stereo not drawn) [Example 708, 2-(1-(4-methoxy-2,6-dimethylphenylsulfonyl)piperidin-3-yloxy)-N-(4-((4-methylpiperazin-1-yl)(phenyl)methyl)cyclohexyl)acetamide] | 91% | 29% | 100% | 
O=C(COCC1CCCCN1S(=O)(=O)c1c(Cl)cc(Cl)cc1Cl)NCC1CCC(C(CCc2ccccc2)N2CCOCC2)CC1 (stereo not drawn) [Example 754, N-((4-(1-morpholino-3-phenylpropyl)cyclohexyl)methyl)-2-((1-(2,4,6-trichlorophenylsulfonyl)piperidin-2-yl)methoxy)acetamide] | 76% | 2% | 47% | 
O=C(COCC1CCCN1S(=O)(=O)c1c(Cl)cc(Cl)cc1Cl)NC1CCC(C(CCc2ccccc2)N2CCCCC2)CC1 (stereo not drawn) [Example 697, N-(4-(3-phenyl-1-(piperidin-1-yl)propyl)cyclohexyl)-2-((1-(2,4,6-trichlorophenylsulfonyl)pyrrolidin-2-yl)methoxy)acetamide] | 97% | 76% | 71% | 
COc1cc(C)c(S(=O)(=O)N2CCC(OCC(=O)NC3CCC(C(c4ccccc4)N4CCOCC4)CC3)C2)c(C)c1 (stereo not drawn) [Example 687, 2-(1-(4-methoxy-2,6-dimethylphenylsulfonyl)pyrrolidin-3-yloxy)-N-(4-(morpholino(phenyl)methyl)cyclohexyl)acetamide] | 88% | 6% | 48% | 
O=C(COCC1CCCCN1S(=O)(=O)c1c(Cl)cc(Cl)cc1Cl)NC1CCC(C(CCc2ccccc2)N2CCCCC2)CC1 (stereo not drawn) [Example 738, N-(4-(3-phenyl-1-(piperidin-1-yl)propyl)cyclohexyl)-2-((1-(2,4,6-trichlorophenylsulfonyl)piperidin-2-yl)methoxy)acetamide] | 62% | 77% | 75% | 
O=C(COC1CCN(S(=O)(=O)c2c(Cl)cc(Cl)cc2Cl)C1)NC1CCC(C(c2ccccc2)N2CCOCC2)CC1 (stereo not drawn) [Example 685, N-(4-(morpholin(phenyl)methyl)cyclohexyl)-2-(1-(2,4,6-trichlorophenylsulfonyl)pyrrolidin-3-yloxy)acetamide] |  |  |  | B1R Ant. r [10 μM] % Inhibition ([1]; Ca2+ FLIPR, CHO K1 rB1R cells): 18%; μ (human μ opiate receptor; Table 3, to be read in the same way as Table 1): 3 % inhibition; B1R Ant. h [10 μM] % Inhibition ([2]; Ca2+ FLIPR, CHO K1 hB1R cells): 13%
CN(CCOCC(=O)NC1CCC(C(c2ccccc2)N2CCOCC2)CC1)S(=O)(=O)c1c(Cl)cc(Cl)cc1Cl (stereo not drawn) [Example 638, N-(4-(morpholino(phenyl)methyl)cyclohexyl)-2-(2-(2,4,6-trichloro-N-methylphenylsulfonamido)ethoxy)acetamide] |  | 2% |  | B1R Ant. r [10 μM] % Inhibition ([1]; Ca2+ FLIPR, CHO K1 rB1R cells): 21%; B1R Ant. h [10 μM] % Inhibition ([2]; Ca2+ FLIPR, CHO K1 hB1R cells): 37%
O=C(COC1CCCN(S(=O)(=O)c2c(Cl)cc(Cl)cc2Cl)C1)NC1CCC(C(CCc2ccccc2)N2CCCCC2)CC1 (stereo not drawn) [Example 673, N-(4-(3-phenyl-1-(piperidin-1-yl)propyl)cyclohexyl)-2-(1-(2,4,6-trichlorophenylsulfonyl)piperidin-3-yloxy)acetamide] | 20% | 71% | 57% | 
O=C(COCC1CCCN(S(=O)(=O)c2c(Cl)cc(Cl)cc2Cl)C1)NC1CCC(C(c2ccccc2)N2CCOCC2)CC1 (stereo not drawn) [Example 703, N-(4-(morpholino(phenyl)methyl)cyclohexyl)-2-((1-(2,4,6-trichlorophenylsulfonyl)piperidin-3-yl)methoxy)acetamide] | 37% | 19% | -4% | 
